Experimental data: patent US20240374598A1, “INHIBITORS OF HUMAN IMMUNODEFICIENCY VIRUS REPLICATION” (ViiV HEALTHCARE UK (NO.5) LIMITED, priority 2018, published 2024)

Columns and labels:
[1] = tested on: recombinant NL4-3 virus (nef section replaced with Renilla luciferase gene) in MT-2 cells; experiment: HIV cell culture assay (antiviral activity, luciferase readout); format: cell-based; conditions: NL43, MT-2 cells infected for 4-5 days with recombinant NL4-3 Renilla luciferase virus
Procedure: HIV cell culture assay—MT-2 cells, 293T cells and the proviral DNA clone of NL4-3 virus were obtained from the NIH AIDS Research and Reference Reagent Program. MT-2 cells were propagated in RPMI 1640 media supplemented with 10% heat inactivated fetal bovine serum (FBS), […]. The 293T cells were propagated in DMEM media supplemented with 10% heat inactivated FBS, […]. A recombinant NL4-3 proviral clone, in which a section of the nef gene was replaced with the Renilla luciferase gene, was used to make the reference virus used in these studies. The recombinant virus was prepared through transfection of the recombinant NL4-3 proviral clone into 293T cells using Transit-293 Transfection Reagent from Mirus Bio LLC (Madison, WI). Supernatent was harvested after 2-3 days and the amount of virus present was titered in MT-2 cells using luciferase enzyme activity as a marker by measuring luciferase enzyme activity. Luciferase was quantitated using the EnduRen Live Cell Substrate from Promega (Madison, WI). Antiviral activities of compounds toward the recombinant virus were quantified by measuring luciferase activity in MT-2 cells infected for 4-5 days with the recombinant virus in the presence of serial dilutions of the compound.
The 50% effective concentration (EC50) was calculated by using the exponential form of the median effect equation where (Fa)=1/[1+(ED50/drug conc.)m] (Johnson VA, Byington RT. Infectivity Assay. In Techniques in HIV Research. ed. Aldovini A, Walker BD. 71-76. New York: Stockton Press. 1990). The 50% inhibitory concentration (EC50) was calculated by using the exponential form of the median effect equation where percent inhibition=1/[1+(EC50/drug concentration)m], where m is a parameter that reflects the slope of the concentration-response curve.

[2] = Compound cytotoxicity, XTT-based colorimetric assay; format: cell-based; conditions: human; uninfected MT2 cells, day 4, XTT assay
Procedure: Compound cytotoxicity and the corresponding CC50 values were determined using the same protocol as described in the antiviral assay except that uninfected cells were used. Cytotoxicity was assessed on day 4 in uninfected MT2 cells by using a XTT (2,3-bis[2-Methoxy-4-nitro-5-sulfophenyl]-2H-tetrazolium-5-carboxyanilide inner salt)-based colorimetric assay (Sigma-Aldrich, St Louis, Mo).

For `CC(C)Cc1ccc2c(=O)n(-c3ccc(Cl)c4c(NS(C)(=O)=O)nn(C)c34)c([C@H](Cc3cc(F)cc(F)c3)NC(=O)Cn3nc(C(F)F)c4c3C(F)(F)[C@@H]3C[C@H]43)nc2c1` [Example 25, N—((S)-1-(3-(4-chloro-1-methyl-3-(methylsulfonamido)-1H-indazol-7-yl)-7-isobutyl-4-oxo-3,4-dihydroquinazolin-2-yl)-2-(3,5-difluorophenyl)ethyl)-2-((3bS,4aR)-3-(difluoromethyl)-5,5-difluoro-3b,4,4a,5-tetrahydro-1H-cyclopropa[3,4]cyclopenta[1,2-c]pyrazol-1-yl)acetamide], the EC50 [1] was 0.167 nM and the CC50 at 4 day [2] was over 1000 nM.

In the case of `Cn1nc(NS(C)(=O)=O)c2c(Cl)ccc(-n3c([C@H](Cc4cc(F)cc(F)c4)NC(=O)Cn4nc(C(F)(F)F)c5c4C(F)(F)[C@@H]4C[C@H]54)nc4cc(C(C)(C)C)ccc4c3=O)c21` [Example 26, N—((S)-1-(7-(tert-butyl)-3-(4-chloro-1-methyl-3-(methylsulfonamido)-1H-indazol-7-yl)-4-oxo-3,4-dihydroquinazolin-2-yl)-2-(3,5-difluorophenyl)ethyl)-2-((3bS,4aR)-5,5-difluoro-3-(trifluoromethyl)-3b,4,4a,5-tetrahydro-1H-cyclopropa[3,4]cyclopenta[1,2-c]pyrazol-1-yl)acetamide], the EC50 [1] is reported as 0.443 nM and the CC50 at 4 day [2] is reported as over 1000 nM.

For `CC(C)(C)c1ccc2c(=O)n(-c3ccc(Cl)c4c(NS(=O)(=O)C5CC5)nn(CC(F)F)c34)c([C@H](Cc3cc(F)cc(F)c3)NC(=O)Cn3nc(C(F)F)c4c3C(F)(F)[C@@H]3C[C@H]43)nc2c1` [Example 27, N—((S)-1-(7-(tert-butyl)-3-(4-chloro-3-(cyclopropanesulfonamido)-1-(2,2-difluoroethyl)-1H-indazol-7-yl)-4-oxo-3,4-dihydroquinazolin-2-yl)-2-(3,5-difluorophenyl)ethyl)-2-((3bS,4aR)-3-(difluoromethyl)-5,5-difluoro-3b,4,4a,5-tetrahydro-1H-cyclopropa[3,4]cyclopenta[1,2-c]pyrazol-1-yl)acetamide], the EC50 [1] was 0.61 nM and the CC50 at 4 day [2] was over 1000 nM.

Work on `Cn1nc(NS(C)(=O)=O)c2c(Cl)ccc(-n3c([C@H](Cc4cc(F)cc(F)c4)NC(=O)Cn4nc(C(F)F)c5c4C(F)(F)[C@@H]4C[C@H]54)nc4cc(C(F)(F)C(C)(C)C)ccc4c3=O)c21` [Example 29, N—((S)-1-(3-(4-chloro-1-methyl-3-(methylsulfonamido)-1H-indazol-7-yl)-7-(1,1-difluoro-2,2-dimethylpropyl)-4-oxo-3,4-dihydroquinazolin-2-yl)-2-(3,5-difluorophenyl)ethyl)-2-((3bS,4aR)-3-(difluoromethyl)-5,5-difluoro-3b,4,4a,5-tetrahydro-1H-cyclopropa[3,4]cyclopenta[1,2-c]pyrazol-1-yl)acetamide] yielded an EC50 [1] of 0.115 nM and a CC50 at 4 day [2] of over 1000 nM.

In the case of `CS(=O)(=O)Nc1nn(CC(F)F)c2c(-n3c([C@H](Cc4cc(F)cc(F)c4)NC(=O)Cn4nc(C(F)F)c5c4C(F)(F)[C@@H]4C[C@H]54)nc4cc(C5CC5)ccc4c3=O)ccc(Cl)c12` [Example 30, N—((S)-1-(3-(4-chloro-1-(2,2-difluoroethyl)-3-(methylsulfonamido)-1H-indazol-7-yl)-7-cyclopropyl-4-oxo-3,4-dihydroquinazolin-2-yl)-2-(3,5-difluorophenyl)ethyl)-2-((3bS,4aR)-3-(difluoromethyl)-5,5-difluoro-3b,4,4a,5-tetrahydro-1H-cyclopropa[3,4]cyclopenta[1,2-c]pyrazol-1-yl)acetamide], the EC50 [1] is reported as 0.097 nM and the CC50 at 4 day [2] is reported as over 1000 nM.

Work on `O=C(Cn1nc(C(F)F)c2c1C(F)(F)[C@@H]1C[C@H]21)N[C@@H](Cc1cc(F)cc(F)c1)c1nc2cc(C3CC3)ccc2c(=O)n1-c1ccc(Cl)c2c(NS(=O)(=O)C3CC3)nn(CC(F)F)c12` [Example 31, N—((S)-1-(3-(4-chloro-3-(cyclopropanesulfonamido)-1-(2,2-difluoroethyl)-1H-indazol-7-yl)-7-cyclopropyl-4-oxo-3,4-dihydroquinazolin-2-yl)-2-(3,5-difluorophenyl)ethyl)-2-((3bS,4aR)-3-(difluoromethyl)-5,5-difluoro-3b,4,4a,5-tetrahydro-1H-cyclopropa[3,4]cyclopenta[1,2-c]pyrazol-1-yl)acetamide] yielded an EC50 [1] of 0.046 nM and a CC50 at 4 day [2] of over 1000 nM.

With `Cn1nc(NS(C)(=O)=O)c2c(Cl)ccc(-n3c([C@H](Cc4cc(F)cc(F)c4)NC(=O)Cn4nc(C(F)F)c5c4C(F)(F)[C@@H]4C[C@H]54)nc4cc(C5CCCC5)ccc4c3=O)c21` [Example 32, N—((S)-1-(3-(4-chloro-1-methyl-3-(methylsulfonamido)-1H-indazol-7-yl)-7-cyclopentyl-4-oxo-3,4-dihydroquinazolin-2-yl)-2-(3,5-difluorophenyl)ethyl)-2-((3bS,4aR)-3-(difluoromethyl)-5,5-difluoro-3b,4,4a,5-tetrahydro-1H-cyclopropa[3,4]cyclopenta[1,2-c]pyrazol-1-yl)acetamide] the EC50 [1] was 0.285 nM and the CC50 at 4 day [2] was over 1000 nM.

`Cn1nc(NS(C)(=O)=O)c2cccc(-n3c([C@H](Cc4cc(F)cc(F)c4)NC(=O)Cn4nc(C(F)F)c5c4C(F)(F)[C@@H]4C[C@H]54)nc4cc(C5CCCC5)ccc4c3=O)c21` [Example 33, N—((S)-1-(7-cyclopentyl-3-(1-methyl-3-(methylsulfonamido)-1H-indazol-7-yl)-4-oxo-3,4-dihydroquinazolin-2-yl)-2-(3,5-difluorophenyl)ethyl)-2-((3bS,4aR)-3-(difluoromethyl)-5,5-difluoro-3b,4,4a,5-tetrahydro-1H-cyclopropa[3,4]cyclopenta[1,2-c]pyrazol-1-yl)acetamide] showed an EC50 [1] of 1.26 nM and a CC50 at 4 day [2] of over 1000 nM.

`Cn1nc(NS(C)(=O)=O)c2c(Cl)ccc(-n3c([C@H](Cc4cc(F)cc(F)c4)NC(=O)Cn4nc(C(F)F)c5c4C(F)(F)[C@@H]4C[C@H]54)nc4cc(C5CCCCC5)ccc4c3=O)c21` [Example 34, N—((S)-1-(3-(4-chloro-1-methyl-3-(methylsulfonamido)-H-indazol-7-yl)-7-cyclohexyl-4-oxo-3,4-dihydroquinazoin-2-yl)-2-(3,5-difluorophenyl)ethyl)-2-((3bS,4aR)-3-(difluoromethyl)-5,5-difluoro-3b,4,4a,5-tetrahydro-1H-cyclopropa[3,4]cyclopenta[1,2-c]pyrazol-1-yl)acetamide] showed an EC50 [1] of 0.597 nM and a CC50 at 4 day [2] of over 1000 nM.

`COc1ccc2c(=O)n(-c3ccc(Cl)c4c(NS(C)(=O)=O)nn(C)c34)c([C@H](Cc3cc(F)cc(F)c3)NC(=O)Cn3ccc(C(C)C)n3)nc2n1` [Example 35, (S)—N-(1-(3-(4-chloro-1-methyl-3-(methylsulfonamido)-1H-indazol-7-yl)-7-methoxy-4-oxo-3,4-dihydropyrido[2,3-d]pyrimidin-2-yl)-2-(3,5-difluorophenyl)ethyl)-2-(3-isopropyl-1H-pyrazol-1-yl)acetamide] showed an EC50 [1] of 0.235 nM and a CC50 at 4 day [2] of over 1000 nM.

Work on `COc1ccc2c(=O)n(-c3ccc(Cl)c4c(NS(C)(=O)=O)nn(C)c34)c([C@H](Cc3cc(F)cc(F)c3)NC(=O)Cn3ccc(C4CC4)n3)nc2n1` [Example 36, (S)—N-(1-(3-(4-chloro-1-methyl-3-(methylsulfonamido)-1H-indazol-7-yl)-7-methoxy-4-oxo-3,4-dihydropyrido[2,3-d]pyrimidin-2-yl)-2-(3,5-difluorophenyl)ethyl)-2-(3-cyclopropyl-1H-pyrazol-1-yl)acetamide] yielded an EC50 [1] of 0.131 nM and a CC50 at 4 day [2] of over 1000 nM.
